In patent US8053435B2, “Naphthalenyloxypropenyl derivatives having inhibitory activity against histone deacetylase and pharmaceutical composition comprising the same” (Korea Research Institute of Chemical Technology, priority 2006, dated 2011):
pIC50: −log10 of the molar value.

These compounds were tested on HDAC (assay: Inhibitory activity against HDAC (BIOMOL Quantizyme Assay system, Fluor de Lys substrate)). Settings: Table 1, formula (1) series; HeLa nuclear extract as source of HDAC enzymes; enzyme reaction 1 hr; read-out: IC50 (HDAC inhibitory concentration).
Assay type: biochemical
Method: HDAC activity was analyzed using BIOMOL Quantizyme™ Assay system which comprised two steps of 1) enzyme reaction between HDAC and a substrate and 2) determination of the level of HDAC inhibitory activity.
(§1) 0.5 μl of HeLa nuclear organic layer (10 μM) (a source of HDAC enzymes) was then added thereto to a final concentration of 100 nM. The enzyme reaction was carried out for 1 hr.
Subsequently, in step 2), 2 μM tricostatin A was added to 50 μl of Flour de Lys™ developer, followed by allowing the mixture to react at room temperature for 15 minutes. The light excited at 355 nm and emitted at 460 nm from the fluorophore was measured with a fluorometric plate reader. The intensity of the fluorescence increases as the enzyme activity is higher. The HDAC inhibitory activity of each of the test compounds was determined and compared with that of the control.
0.5 μl of HeLa nuclear organic layer (10 μM) (a source of HDAC enzymes) was then added thereto to a final concentration of 100 nM, The enzyme reaction was carried out for 1 hr.
as §1, §1

Compound | pIC50
COc1ccc(CCNC(=O)/C(=C/c2ccc(C(=O)NO)cc2)COc2cccc3ccccc23)cc1 [Example 1-3, (E)-4-(3-(4-Methoxyphenethylamino)-2-((naphthalen-1-yloxy)methyl)-3-oxoprop-1-enyl)-N-hydroxybenzamide] | 7.10
CC(C)N(CCNC(=O)/C(=C/c1ccc(C(=O)NO)cc1)COc1cccc2ccccc12)C(C)C [Example 1-5] | 7.85
(E)-(3-(3-(2-Methylpiperidin-1-yl)propylamino)-2-((naphthalen-1-yloxy)methyl)-3-oxoprop-1-enyl)-N-hydroxybenzamide [Example 1-19] | 8.05

Other lines, results leading:

pIC50 | Compound
7.55 | O=C(NCCCn1ccnc1)/C(=C/c1ccc(C(=O)NO)cc1)COc1cccc2ccccc12 [Example 1-2, (E)-4-(3-(3-(1H-Imidazol-1-yl)propylamino)-2-((naphthalen-1-yloxy)methyl)-3-oxopropenyl)-N-hydroxybenzamide]
7.22 | O=C(NCC1CCCO1)C(=Cc1ccc(C(=O)NO)cc1)COc1cccc2ccccc12 (stereo not shown) [Example 1-9, (E)-4-(3-(Tetrahydrofuran-2-yl)methylamino)-2-((naphthalen-1-yloxy)methyl)-3-oxoprop-1-enyl)-N-hydroxybenzamide]
7.40 | O=C(NCCCN1CCCC1=O)/C(=C/c1ccc(C(=O)NO)cc1)COc1cccc2ccccc12 [Example 1-11, (E)-4-(3-(3-(2-Oxopyrrolidin-1-yl)propylamino)-2-((naphthalen-1-yloxy)methyl)-3-oxoprop-1-enyl)-N-hydroxy-benzamide]
7.52 | COCCNC(=O)/C(=C/c1ccc(C(=O)NO)cc1)COc1cccc2ccccc12 [Example 1-14, (E)-4-(3-(2-Methoxyethylamino)-2-((naphthalen-1-yloxy)methyl)-3-oxoprop-1-enyl)-N-hydroxybenzamide]
7.40 | O=C(NC1CCCCC1)/C(=C/c1ccc(C(=O)NO)cc1)COc1cccc2ccccc12 [Example 1-15, (E)-4-(3-(Cyclohexylamino)-2-((naphthalen-1-yloxy)methyl)-3-oxoprop-1-enyl)-N-hydroxybenzamide]
8.00 | O=C(NCc1cccs1)/C(=C/c1ccc(C(=O)NO)cc1)COc1cccc2ccccc12 [Example 1-16, (E)-4-(3-(Thiophen-2-ylmethylamino)-2-((naphthalen-1-yloxy)methyl)-3-oxoprop-1-enyl)-N-hydroxybenzamide]
7.68 | O=C(NCCCN1CCOCC1)/C(=C/c1ccc(C(=O)NO)cc1)COc1cccc2ccccc12 [Example 1-18, (E)-4-(3-(3-Morpholinopropylamino)-2-((naphthalen-1-yloxy)methyl)-3-oxoprop-1-enyl)-N-hydroxybenzamide]
7.68 | CCOCCCNC(=O)/C(=C/c1ccc(C(=O)NO)cc1)COc1cccc2ccccc12 [Example 1-21, (E)-4-(3-(3-Ethoxypropylamino)-2-((naphthalen-1-yloxy)methyl)-3-oxoprop-1-enyl)-N-hydroxybenzamide]

Same assay, conditions: Table 3, formula (2) series; HeLa nuclear extract as source of HDAC enzymes; enzyme reaction 1 hr; read-out: IC50 (HDAC inhibitory concentration)

Compound | pIC50
O=C(CCCC/C=C(\COc1cccc2ccccc12)C(=O)NCCc1ccc(O)cc1)NO [Example 2-2, (E)-N8-Hydroxy-N1-(4-hydroxyphenethyl)-2-((naphthalen-1-yloxy)methyl)-2-octenediamide] | 8.05
COCC(C)NC(=O)/C(=C/CCCCC(=O)NO)COc1cccc2ccccc12 (stereo not shown) [Example 2-5, (E)-N8-Hydroxy-N1-(1-methoxypropan-2-yl)-2-((naphthalen-1-yloxy)methyl)-2-octenediamide] | 7.77
O=C(CCCC/C=C(\COc1cccc2ccccc12)C(=O)NCCc1ccc(F)cc1)NO [Example 2-7, (E)-N1-(4-Fluorophenethyl)-N8-hydroxy-2-((naphthalen-1-yloxy)methyl)-2-octenediamide] | 7.70
O=C(CCCC/C=C(\COc1cccc2ccccc12)C(=O)NCCC1=CCCCC1)NO [Example 2-9, (E)-N1-(2-Cyclohexenylethyl)-N8-hydroxy-2-((naphthalen-1-yloxy)methyl)-2-octenediamide] | 7.57
O=C(CCCC/C=C(\COc1cccc2ccccc12)C(=O)NCCCN1CCCC1=O)NO [Example 2-10, (E)-N8-Hydroxy-2-((naphthalen-1-yloxy)methyl)-N1-(3-(2-oxopyrrolidin-1-yl)propyl)-2-octenediamide] | 7.80
O=C(CCCC/C=C(\COc1cccc2ccccc12)C(=O)NCc1ccc(OC(F)(F)F)cc1)NO [Example 2-17, (E)-N8-Hydroxy-2-((naphthalen-1-yloxy)methyl)-N1-(4-(trifluoromethoxy)benzyl)-2-octenediamide] | 8.15
O=C(CCCC/C=C(\COc1cccc2ccccc12)C(=O)NC1CCNC1)NO (stereo not shown) [Example 2-24, (E)-N8-Hydroxy-2-((naphthalen-1-yloxy)methyl)-N1-(pyrrolidin-3-yl)-2-octenediamide] | 7.92
CCN1CCC(NC(=O)/C(=C/CCCCC(=O)NO)COc2cccc3ccccc23)CC1 [Example 2-28, (E)-N1-(1-Ethylpiperidin-4-yl)-N8-hydroxy-2-((naphthalen-1-yloxy)methyl)-2-octenediamide] | 7.89

The remaining lines, values ahead:

pIC50 | Compound
8.00 | O=C(CCCC/C=C(\COc1cccc2ccccc12)C(=O)NC1CCN(CC2CCCCC2)C1)NO (stereo not shown) [Example 2-18, (E)-N1-(1-(Cyclohexylmethyl)pyrrolidin-3-yl)-N8-hydroxy-2-((naphthalen-1-yloxy)methyl)-2-octenediamide]
7.66 | O=C(CCCC/C=C(\COc1cccc2ccccc12)C(=O)NC1CCN(C(=O)C2CCCCC2)C1)NO (stereo not shown) [Example 2-22, (E)-N1-(1-(Cyclohexanecarbonyl)pyrrolidin-3-yl)-N8-hydroxy-2-((naphthalen-1-yloxy)methyl)-2-octenediamide]

Same assay, conditions: Table 5, formula (3) series; HeLa nuclear extract as source of HDAC enzymes; enzyme reaction 1 hr; read-out: Inhibitory conc. (IC50, μM/ml)

IC50 | Compound
0.062 µM | CC1CCCCN1CCCNC/C(=C/CCCCC(=O)NO)COc1cccc2ccccc12 (stereo not shown) [Example 3-5, (Z)—N-Hydroxy-8-(3-(2-methylpiperidin-1-yl)propylamino)-7-((naphthalen-1-yloxy)methyl)oct-6-enamide]
0.002 µM | CN(C)CCCNC/C(=C/CCCCC(=O)NO)COc1cccc2ccccc12 [Example 3-6, (Z)-8-(3-(Dimethylamino)propylamino)-N-hydroxy-7-((naphthalen-1-yloxy)methyl)oct-6-enamide]
0.113 µM | CCN(CC)CCCNC/C(=C/CCCCC(=O)NO)COc1cccc2ccccc12 [Example 3-12, (Z)-8-(3-(Diethylamino)propylamino)-N-hydroxy-7-((naphthalen-1-yloxy)methyl)oct-6-enamide]
0.042 µM | CC(C)N(CCNC/C(=C/CCCCC(=O)NO)COc1cccc2ccccc12)C(C)C [Example 3-13]

Same assay, conditions: Table 7, formula (4) series; HeLa nuclear extract as source of HDAC enzymes; enzyme reaction 1 hr; read-out: HDAC Inhibitory conc. (IC50, μM/ml)

IC50 | Compound
0.14 µM | O=C(NO)c1ccc(/C=C(/CNCc2ccc(OC(F)(F)F)cc2)COc2cccc3ccccc23)cc1 [Example 4-3, (Z)—N-hydroxy-4-(3-(naphthalen-1-yloxy)-2-((4-(trifluoromethoxy)benzylamino)methyl)prop-1-enyl)-benzamide]
0.208 µM | CC(C)(C)OC(=O)N1CCC(NC/C(=C/c2ccc(C(=O)NO)cc2)COc2cccc3ccccc23)C1 (stereo not shown) [Example 4-4, t-butyl (Z)-3-(3-(4-(hydroxycarbamoyl)phenyl)-2-((naphthalen-1-yloxy)methyl)allylamino)-pyrrolidine-1-carboxylate]
0.02 µM | O=C(NO)c1ccc(/C=C(/CNC2CCNC2)COc2cccc3ccccc23)cc1 (stereo not shown) [Example 4-5, (Z)—N-hydroxy-4-(3-(naphthalen-1-yloxy)-2-((pyrrolidin-3-ylamino)methyl)prop-1-enyl)-benzamide]
0.061 µM | O=C(NO)c1ccc(/C=C(/CNC2CCN(C(=O)C3CCCCC3)C2)COc2cccc3ccccc23)cc1 (stereo not shown) [Example 4-6, (Z)-4-(3-(1-(cyclohexylcarbonyl)pyrrolidin-3-ylamino)-2-((naphthalen-1-yloxy)-methyl)prop-1-enyl)-N-hydroxybenzamide]
0.045 µM | O=C(NO)c1ccc(/C=C(/CNC2CCN(CC3CCCCC3)C2)COc2cccc3ccccc23)cc1 (stereo not shown) [Example 4-8, (Z)-4-(3-(1-(cyclohexylmethyl)pyrrolidin-3-ylamino)-2-((naphthalen-1-yloxy)-methyl)prop-1-enyl)-N-hydroxybenzamide]
0.046 µM | O=C(NO)c1ccc(/C=C(/CNC2CCN(Cc3ccccc3)C2)COc2cccc3ccccc23)cc1 (stereo not shown) [Example 4-9, (Z)-4-(3-(1-benzylpyrrolidin-3-ylamino)-2-((naphthalen-1-yloxy)methyl)prop-1-enyl)-N-hydroxybenzamide]
0.04 µM | O=C(NO)c1ccc(/C=C(/CNC2CCN(C3CCCCC3)C2)COc2cccc3ccccc23)cc1 (stereo not shown) [Example 4-12, (Z)-4-(3-(1-cyclohexylpyrrolidin-3-ylamino)-2-((naphthalen-1-yloxy)methyl)prop-1-enyl)-N-hydroxybenzamide]
0.013 µM | CN1CCCC1CCNC/C(=C/c1ccc(C(=O)NO)cc1)COc1cccc2ccccc12 (stereo not shown) [Example 4-14, (Z)—N-hydroxy-4-(3-(2-(1-methylpyrrolidin-2-yl)ethylamino)-2-((naphthalen-1-yloxy)methyl)prop-1-enyl)benzamide]
0.03 µM | O=C(NO)c1ccc(/C=C(/CNC2CCCCC2)COc2cccc3ccccc23)cc1 [Example 4-21, (Z)-4-(3-(cyclohexylamino)-2-((naphthalen-1-yloxy)methyl)prop-1-enyl)-N-hydroxybenzamide]
